Usually efflux ratio stands for a quotient of directional permeabilities that is used to spot active efflux.

Consider one compound from PubChem BioAssay AID504779 (National Center for Advancing Translational Sciences (NCATS), 2011).

In this series the test system is Caco-2 bidirectional permeability, LC-MS/MS efflux ratio. Nature of the series: Enhancers of SMN2 Splice Variant Expression: Efflux Ratio Profiling. Conditions: hits give low values. The text has this:
Spinal muscular atrophy (SMA) is caused by insufficient levels of the survival motor neuron protein SMN. The SMN locus on chromosome 5q13 contains two inverted copies of SMN called SMN1 and SMN2 which are 99% identical at the amino acid level. SMN1 is a fully functional protein and SMN2 skips exon 7 90% of the time. Skipping of exon 7 produces non-functional protein product. 10% of the SMN2 protein includes exon 7 and is fully functional. In the SMA disease state, mutations in the SMN1 locus are the cause of the disease state. Because only 10% of SMN2 is of the fully functional form, it is not sufficient to overcome the deficiency produced by the loss of the SMN1 product. A therapy that either increase the amount of SMN2 product made or to increase the inclusion of exon 7 has been proposed for the treatment of SMA. After screening and medicinal chemistry efforts a probe was identified and is further characterized in this in vitro ADME assay. This bioassays provides profiling data on Caco-2 cell permeability of leads compounds developed for the HPGD project. […]
Prepare 1M HEPES: add 23.83g HEPES to 100ml of 0.85% NaCl Prepare HBSS+ buffer: add 12.8ml of 1M HEPES in 0.85% NaCl to 500ml HBSS buffer. […] The T0, LY and T90, LY plates are read by FlexStation 3 at excitation of 485 nm and emission of 535 nm to determine LY permeability. […]

For the compound `O=C(O)C1CCN(c2nc(-c3ccc(Br)cc3)cs2)CC1`, the efflux ratio was 0.4.
